The target in one data set is T1, CYP1A2 (Homo sapiens, UniProt P05177).
T1 construct: assay run by Bienta (Enamine Biology Services)
T1 sequence (P05177 2-516 limits assumed): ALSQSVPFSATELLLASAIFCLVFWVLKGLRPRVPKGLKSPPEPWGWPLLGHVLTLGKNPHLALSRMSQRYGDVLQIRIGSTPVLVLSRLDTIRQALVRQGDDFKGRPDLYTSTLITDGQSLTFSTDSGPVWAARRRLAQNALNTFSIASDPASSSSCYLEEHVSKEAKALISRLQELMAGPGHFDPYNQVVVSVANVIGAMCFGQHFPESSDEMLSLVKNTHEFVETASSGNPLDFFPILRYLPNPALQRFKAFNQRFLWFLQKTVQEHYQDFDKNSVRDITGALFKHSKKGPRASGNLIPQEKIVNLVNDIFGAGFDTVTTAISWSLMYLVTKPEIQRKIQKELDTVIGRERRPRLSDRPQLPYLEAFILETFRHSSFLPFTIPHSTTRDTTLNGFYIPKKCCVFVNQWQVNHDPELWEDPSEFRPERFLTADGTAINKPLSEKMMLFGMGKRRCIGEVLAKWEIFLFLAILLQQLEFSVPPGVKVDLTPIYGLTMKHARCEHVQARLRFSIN
Put plainly: In vitro CYP450 inhibition assay (Vivid). It is filed as biochemical. The note with it: probe fluorogenic Vivid CYP450 substrate (not named). How it is done:
(§1) The study was performed by Bienta (Enamine Biology Services). The potential for CYP450 inhibition (isoforms 1A2, 2C9, 2C19, 2D6, and 3A4) was assessed by performing in vitro inhibition studies using fluorogenic CYP450 substrates with the corresponding CYP450 enzymes and NADPH regeneration system (Vivid CYP450 Screening Kits) with some minor changes to the manufacturer’s protocols. The fluorescent signal produced from the reaction is directly proportional to the cytochrome P450 activity. In the cases when tested compounds interfere with the CYP450 enzyme–substrate reaction, the fluorescent signal decreases.
(§2) Briefly, the tested compounds were first dissolved in DMSO at 100× concentration (1 mM) and diluted in buffer to 2.5× concentration (25 μM). […] After 10 min of preincubation, the enzymatic reaction was initiated by the addition of a mix of NADPH and the appropriate CYP450 substrates. The plate was incubated for the desired reaction time (25 min for CYP1A2, CYP2C9, CYP2D6, and CYP3A4; 60 min for CYP2C19) after which Stop Reagent was added and fluorescence measured using SpectraMax Paradigm Multi-Mode Microplate Reader. All test points were performed in quadruplicates at a concentration of 10 μM (1% DMSO).

The target in a further data set is T2, CYP2D6 (Homo sapiens, UniProt P10635).
T2 construct: assay run by Bienta (Enamine Biology Services)
Put plainly: In vitro CYP450 inhibition assay (Vivid). It counts as biochemical. The note with it: probe fluorogenic Vivid CYP450 substrate (not named). On the procedure: as §1, §2

Another data set addresses T3, CYP2C9 (Homo sapiens, UniProt P11712).
T3 construct: assay run by Bienta (Enamine Biology Services)
Put plainly: In vitro CYP450 inhibition assay (Vivid). It is filed as biochemical. The note with it: probe fluorogenic Vivid CYP450 substrate (not named). How it is done:
as §1, §2

The next data set deals with T4, CYP2C19 (Homo sapiens, UniProt P33261).
T4 construct: assay run by Bienta (Enamine Biology Services)
The experiment in a line: In vitro CYP450 inhibition assay (Vivid). It is filed as biochemical. The note with it: probe fluorogenic Vivid CYP450 substrate (not named). On the procedure:
as §1, §2

For a further data set, the system named is CD8+ T cells. Put plainly: CD8+ T cell activation assay (CD25, IFN-γ, granzyme B). It is filed as cell-based, human. The note with it: granzyme B and IFN-γ, 60 h. On the procedure:
6 CD73 inhibition partially reverses the immunosuppressive effect of adenosine generated from AMP in CD8 ^ + T cells. CD8^+ T cells were activated using CD3/CD28 activation beads in the presence of 2.5 μM EHNA, with or without 1 mM AMP and CD73 inhibitors (500 nM or 50 nM). A. CD25 expression. The percentage of CD8^+ T cells expressing the activation marker CD25 was measured by flow cytometry 60 h after activation. Data represent technical triplicates. B. Cytokine secretion. Granzyme B and IFN-γ levels in the culture supernatant were quantified by ELISA 60 h after activation. The data represent technical duplicates from two independently treated wells.
Peripheral blood was obtained from healthy donors at the Military University Hospital Prague, following informed consent. CD8+ T cells were enriched using the RosetteSep Human CD8+ T Cell Enrichment Cocktail ([…] Technologies) according to the manufacturer’s instructions and subsequently isolated by density gradient centrifugation using SepMate tubes ([…] Technologies). Residual red blood cells were lysed using a red blood cell lysis buffer (155 mM NH4Cl, 12 mM NaHCO3, 0.1 mM EDTA, pH = 7.1–7.4). The isolated CD8+ T cells were resuspended in complete RPMI and counted using an automated cell counter.
CD8+ T cells were seeded at 5 × 10^4 cells/well in 50 μL of complete RPMI in a flat-bottom 96-well plate. […] This was followed by the addition of 10 μL of a CD73 inhibitor at either 5 μM or 500 nM (experimental wells) or 10 μL of complete RPMI (control wells). Subsequently, 20 μL of 5 mM AMP was added to all wells except those serving as controls for maximal T cell activation. […]
Following incubation, supernatants were collected for quantification of IFN-γ and granzyme B using ELISA. […] Finally, stained cells were washed and analyzed using a BD LSRFortessa flow cytometer. Data were processed and analyzed using FlowJo software (version 10.8.1) and GraphPad Prism 10.
Secretion of IFN-γ and granzyme B was quantified using Human IFN-γ DuoSet ELISA and Human Granzyme B DuoSet ELISA (R&D Systems) according to the manufacturer’s instructions. […]

T4 sequence (P33261 whole entry): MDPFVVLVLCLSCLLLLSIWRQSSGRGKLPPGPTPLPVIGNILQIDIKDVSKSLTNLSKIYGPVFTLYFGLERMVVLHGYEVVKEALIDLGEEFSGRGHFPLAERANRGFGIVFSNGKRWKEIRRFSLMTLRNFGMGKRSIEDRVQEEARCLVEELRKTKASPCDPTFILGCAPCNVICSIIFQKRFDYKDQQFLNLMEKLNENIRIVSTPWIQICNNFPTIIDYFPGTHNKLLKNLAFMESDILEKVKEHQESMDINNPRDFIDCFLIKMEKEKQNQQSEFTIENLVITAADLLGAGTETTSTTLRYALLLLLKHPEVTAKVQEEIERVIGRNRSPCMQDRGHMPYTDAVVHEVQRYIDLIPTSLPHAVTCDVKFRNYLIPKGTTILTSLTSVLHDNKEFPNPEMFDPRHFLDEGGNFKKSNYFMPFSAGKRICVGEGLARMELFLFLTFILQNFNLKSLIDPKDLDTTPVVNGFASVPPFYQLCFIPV
T3 sequence (P11712 whole entry): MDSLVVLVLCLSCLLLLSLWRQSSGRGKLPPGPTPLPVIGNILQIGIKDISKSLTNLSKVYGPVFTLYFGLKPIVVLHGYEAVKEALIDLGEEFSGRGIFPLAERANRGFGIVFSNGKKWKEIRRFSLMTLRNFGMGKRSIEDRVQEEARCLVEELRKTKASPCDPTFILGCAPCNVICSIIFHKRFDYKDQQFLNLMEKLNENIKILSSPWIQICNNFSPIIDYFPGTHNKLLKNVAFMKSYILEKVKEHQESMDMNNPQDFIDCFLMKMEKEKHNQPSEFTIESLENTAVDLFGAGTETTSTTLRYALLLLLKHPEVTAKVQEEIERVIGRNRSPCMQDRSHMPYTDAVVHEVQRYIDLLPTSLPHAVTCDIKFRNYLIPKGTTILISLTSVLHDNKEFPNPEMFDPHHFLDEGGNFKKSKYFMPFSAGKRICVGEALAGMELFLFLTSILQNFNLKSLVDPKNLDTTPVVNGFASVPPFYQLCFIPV
T2 sequence (P10635 whole entry): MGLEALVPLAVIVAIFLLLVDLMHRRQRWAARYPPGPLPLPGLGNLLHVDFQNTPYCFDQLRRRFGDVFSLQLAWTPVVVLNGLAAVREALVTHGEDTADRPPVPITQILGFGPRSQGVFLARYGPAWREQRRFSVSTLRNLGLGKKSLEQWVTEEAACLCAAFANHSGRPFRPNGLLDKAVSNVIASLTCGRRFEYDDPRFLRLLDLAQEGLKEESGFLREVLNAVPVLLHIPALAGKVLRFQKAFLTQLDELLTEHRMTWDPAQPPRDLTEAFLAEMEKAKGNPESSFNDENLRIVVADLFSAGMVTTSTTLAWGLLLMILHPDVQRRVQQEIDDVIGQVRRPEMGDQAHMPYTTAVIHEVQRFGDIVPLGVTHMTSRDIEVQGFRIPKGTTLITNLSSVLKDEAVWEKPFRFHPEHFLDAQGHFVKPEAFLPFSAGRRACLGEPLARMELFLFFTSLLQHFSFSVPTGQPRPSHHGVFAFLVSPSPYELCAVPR

The term inhibition denotes the relative decrease from the control value, in per cent. As for `O=P(O)(O)CP(=O)(O)OC[C@H]1O[C@@H](n2ccc3c(-c4ccc5ccccc5c4)ncnc32)[C@H](O)[C@@H]1O` [4A.7], the inhibition at 25 min, 10 µM against CYP1A2 is 7%; against CYP2D6, -17%; at CYP2C9 it was 23%. Also, at CYP2C19, the inhibition at 60 min, 10 µM was found to be 10%.

Regarding `O=P(O)(O)CP(=O)(O)OC[C@H]1O[C@@H](n2ccc3c(-c4cccc5c4CCCC5)nc(Cl)nc32)[C@H](O)[C@@H]1O` [7B.12], the inhibition at 25 min, 10 µM at CYP1A2 is 0%; against CYP2D6, -13%; on CYP2C9, 15%. For the same compound, the inhibition at 60 min, 10 µM at CYP2C19 was determined as 10%.

As for `O=P(O)(O)CP(=O)(O)OC[C@H]1O[C@@H](n2ccc3c(-c4ccc5c(c4)CCCC5)nc(I)nc32)[C@H](O)[C@@H]1O` [27H.23, [(5-{[2-Iodo-4-(5,6,7,8-tetrahydronaphthalen-2-yl)-7H-pyrrolo[2,3-d]pyrimidin-7-yl]-β-D-ribofuranosyl}oxy)phosphonomethyl]phosphonic Acid], the values for the inhibition at 25 min, 10 µM on CYP1A2, at CYP2D6 and against CYP2C9 were -4%, -12% and 11%, respectively. For the same compound, the inhibition at 60 min, 10 µM against CYP2C19 is -7%.

On to `O=P(O)(O)CP(=O)(O)OC[C@H]1O[C@@H](n2ccc3c(-c4cccc5ccncc45)ncnc32)[C@H](O)[C@@H]1O` [4A.18], for which the inhibition at 25 min, 10 µM on CYP1A2 is 7%; at CYP2D6, -10%; at CYP2C9 it was 11%. Moreover, the inhibition at 60 min, 10 µM against CYP2C19 came out at 3%.

With `O=P(O)(O)CP(=O)(O)OC[C@H]1O[C@@H](n2ccc3c(-c4ccc(F)c5ccccc45)nc(Cl)nc32)[C@H](O)[C@@H]1O` [7B.28], the results for the inhibition at 25 min, 10 µM against CYP1A2, against CYP2D6 and at CYP2C9 were 9%, -6% and 24%, respectively. Besides, the inhibition at 60 min, 10 µM against CYP2C19 came out at 22%.

`O=P(O)(O)CP(=O)(O)OC[C@H]1O[C@@H](n2ccc3c(-c4ccc5c(c4)CCCC5)nc(Cl)nc32)[C@H](O)[C@@H]1O` [7B.23]: the inhibition at 25 min, 10 µM is -17% against CYP1A2, 6% on CYP2D6 and 21% against CYP2C9. Besides, the inhibition at 60 min, 10 µM at CYP2C19 was found to be 3%.

With `Cc1nc(-c2ccc3ccccc3c2)c2ccn([C@@H]3O[C@H](COP(=O)(O)CP(=O)(O)O)[C@@H](O)[C@H]3O)c2n1` [18E.7], the cytokine rescue efficacy entry with CD8+ T cells was “weakest effects”.

For `Cc1nc(-c2cccc3ccccc23)c2ccn([C@@H]3O[C@H](COP(=O)(O)CP(=O)(O)O)[C@@H](O)[C@H]3O)c2n1` [18E.6], the cytokine rescue efficacy entry in the data set with CD8+ T cells is given as “weakest effects”. For the same compound, the inhibition at 25 min, 10 µM at CYP1A2 was 8%; on CYP2D6, -18%; against CYP2C9 it was 12%. Also, the inhibition at 60 min, 10 µM against CYP2C19 was -20%.

(Values after PMC12797170, “Potent Competitive Inhibitors of Ecto-5′-nucleotidase (CD73) based on 6‑(Het)aryl-7-deazapurine Ribonucleoside 5′‑O‑Bisphosphonates” (ACS Pharmacology & Translational Science, 2025).)
